Test results as given in patent US9062088B2, “CDK-inhibiting pyrrolopyrimidine carboxamide derivative or pharmaceutically acceptable salt thereof, and pharmaceutical composition containing the same as active ingredient for preventing or treating hepatocellular carcinoma” (SNU R&DB Foundation, priority 2010, dated 2015).

System: Mcl-1, survivin, XIAP mRNA
Assay: RT-PCR of Mcl-1, survivin, XIAP mRNA in SNU-354 cells
Assay type: cell-based, human
Settings: FIG. 14
Experimental: Total RNA was extracted from SNU-354 cells treated with the compound of Example 2 according to the conventional method. For reverse transcription, 5 μg of the extracted RNA and M-MLV reverse transcriptase (Promega Corporation, WI, USA) were used. Reverse Transcription was induced at 37° C. for 1 hour, followed by further reaction at 95° C. for 5 minutes. For PCR, 5 μl of cDNA obtained from the reverse transcription was used as a template and Taq DNA polymerase was used. Total reaction volume was 50 μl. PCR was performed as follows; predenaturation at 95° C. for 5 minutes, denaturation at 95° C. for 1 minute, annealing at 56° C. for 1 minute, polymerization at 72° C. for 1 minute, 30 cycles from denaturation to polymerization, and final extension at 72° C. for 10 minutes. After PCR, the PCR products were analyzed by electrophoresis on 1% agarose gel. The forward primer for Mcl-1 was 5′-CGGTAATCGGACTCAACCTC-3′ (SEQ ID NO: 1) and the reverse primer was 5′-CCT CCT TCT CCG TAG CCA A-3′ (SEQ ID NO: 2). The forward primer for XIAP was 5′-AGTGGTAGTCCTGTTTCAGCATCA-3′ (SEQ ID NO: 3) and the reverse primer was 5′-CCG CAC GGT ATC TCC TTC A-3′ (SEQ ID NO: 4). The forward primer for survivin was 5′-TGC CTG GCA GCC CTT TC-3′ (SEQ ID NO: 5) and the reverse primer was 5′-CCTCCAAGAAGGGCCAGTTC-3′ (SEQ ID NO. 6). […]

SMILES: CC(C)C(=O)OC[C@@H]1O[C@H](n2cnc(N)c3c(C(N)=O)c(Br)nc2-3)[C@H](O)[C@H]1O [Example 2, ((2S,3R,4R,5S)-5-(4-amino-6-bromo-5-carbamoyl-1H-pyrrolo[2,3-d]pyrimidin-1-yl)-3,4-dihydroxy-tetrahydrofuran-2-yl)methyl isobutyrate]
- Mcl-1, survivin and XIAP mRNA: decrease of mRNA
